Assay [1] has as its system HCV genotype 1a (H77 strain) replicon in HUH-7 cells. In words: HCV replicon luciferase reporter assay, genotype 1a. Conditions: Hepatitis C virus, Huh-7, 72 h, HCV genotype 1a replicon luciferase assay, 3 days incubation, range class, read-out: LE_1a (EC50, range). It is filed as cell-based. In outline: (§1)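 Replicon inhibition for both genotypes was measured as Renilla luciferase signal (EnduRen, 7.5 μM final, 2 h) after 3-day, 37° C exposure of replicon-bearing HUH-7 cells in 4% FCS DMEM, 0.5% DMSO. The 1b construct carries S1179I; the 1a H77 construct carries P1496L and S2204I. Twenty-point, 3-fold dilutions were fitted four-parametrically for EC50, and CC50 was taken from multiplexed Cell Titer-Blue.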
A general note: A replicon is a self-replicating genome or part of one, used to study replication in cells.

Assay [2] concerns HCV genotype 1b (Con1) replicon in HUH-7 cells. In words: HCV replicon luciferase reporter assay, genotype 1b. The assay is classed as cell-based. As to conditions: Hepatitis C virus, Huh-7, 72 h, HCV genotype 1b replicon luciferase assay, 3 days incubation, range class, read-out: LE_1b (EC50, range). The method in brief:
as §1

pEC50: −log10 of the molar value.

Data on twelve compounds can be found in patent publication US9499550B2 (BRISTOL-MYERS SQUIBB COMPANY, priority 2012, dated 2016).

The pEC50 is the negative decadic logarithm of the EC50, by convention in mol/L.

Consider `COc1ccc2c(O[C@@H]3C[C@H]4C(=O)N[C@]5(C(=O)NS(=O)(=O)C6CC6)C[C@H]5/C=C\CC[C@@H](C)C[C@@H](C)[C@H](NC(=O)OC(C)(C)C(F)(F)F)C(=O)N4C3)nc(N(C)C)cc2c1` [Compound 3130, 1,1,1-trifluoro-2-methylpropan-2-yl((2R,6S,7R,9R,13aS,14aR,16aS,Z)-14a-((cyclopropylsulfonyl)carbamoyl)-2-((3-(dimethylamino)-6-methoxyisoquinolin-1-yl)oxy)-7,9-dimethyl-5,16-dioxo-1,2,3,5,6,7,8,9,10,11,13a,14,14a,15,16,16a-hexadecahydrocyclopropa[e]pyrrolo[1,2-a][1,4]diazacyclopentadecin-6-yl)carbamate], for which the negative-log EC50 (pEC50) in assay [1] and in assay [2] was more than 8.26 throughout.
With `COc1ccc2c(O[C@@H]3C[C@H]4C(=O)N[C@]5(C(=O)NS(=O)(=O)C6CC6)C[C@H]5/C=C\CC[C@@H](C)C[C@@H](C)[C@H](NC(=O)OC(C)(C)C(C)(F)F)C(=O)N4C3)nc(N(C)C)cc2c1` [Compound 3132, 3,3-difluoro-2-methylbutan-2-yl((2R,6S,7R,9R,13aS,14aR,16aS,Z)-14a-((cyclopropylsulfonyl)carbamoyl)-2-((3-(dimethylamino)-6-methoxyisoquinolin-1-yl)oxy)-7,9-dimethyl-5,16-dioxo-1,2,3,5,6,7,8,9,10,11,13a,14,14a,15,16,16a-hexadecahydrocyclopropa[e]pyrrolo[1,2-a][1,4]diazacyclopentadecin-6-yl)carbamate], the negative logarithm of the EC50 (pEC50) in assay [1] and in assay [2] was more than 8.26 throughout.
As for `COc1ccc2c(O[C@@H]3C[C@H]4C(=O)N[C@]5(C(=O)NS(=O)(=O)C6CC6)C[C@H]5/C=C\CC[C@@H](C)C[C@@H](C)[C@H](NC(=O)O[C@H](C)C(F)(F)F)C(=O)N4C3)nc(N(C)C)cc2c1` [Compound 3134, (R)-1,1,1-trifluoropropan-2-yl ((2R,6S,7R,9R,13aS,14aR,16aS,Z)-14a-((cyclopropylsulfonyl)carbamoyl)-2-((3-(dimethylamino)-6-methoxyisoquinolin-1-yl)oxy)-7,9-dimethyl-5,16-dioxo-1,2,3,5,6,7,8,9,10,11,13a,14,14a,15,16,16a-hexadecahydrocyclopropa[e]pyrrolo[1,2-a][1,4]diazacyclopentadecin-6-yl)carbamate], the pEC50 in assay [1] and in assay [2] was more than 8.26 each time.
Consider `COc1cnc(O[C@@H]2C[C@H]3C(=O)N[C@]4(C(=O)NS(=O)(=O)C5(C)CC5)C[C@H]4/C=C\CC[C@H](C)C[C@@H](C)[C@H](NC(=O)OC(C)(C)C)C(=O)N3C2)c2ccc(N(C)C)cc12` [Compound 3135, tert-butyl ((2R,6S,7R,9S,13aS,14aR,16aS,Z)-2-((6-(dimethylamino)-4-methoxyisoquinolin-1-yl)oxy)-7,9-dimethyl-14a-(((1-methylcyclopropyl)sulfonyl)carbamoyl)-5,16-dioxo-1,2,3,5,6,7,8,9,10,11,13a,14,14a,15,16,16a-hexadecahydrocyclopropa[e]pyrrolo[1,2-a][1,4]diazacyclopentadecin-6-yl)carbamate], for which the pEC50 in assay [1] and in assay [2] was more than 8.26 in each case.
Consider `COc1cnc(O[C@@H]2C[C@H]3C(=O)N[C@]4(C(=O)NS(=O)(=O)C5(C)CC5)C[C@H]4/C=C\CC[C@@H](C)C[C@@H](C)[C@H](NC(=O)OC(C)(C)C)C(=O)N3C2)c2ccc(N(C)C)cc12` [Compound 3136, tert-butyl ((2R,6S,7R,9R,13aS,14aR,16aS,Z)-2-((6-(dimethylamino)-4-methoxyisoquinolin-1-yl)oxy)-7,9-dimethyl-14a-(((1-methylcyclopropyl)sulfonyl)carbamoyl)-5,16-dioxo-1,2,3,5,6,7,8,9,10,11,13a,14,14a,15,16,16a-hexadecahydrocyclopropa[e]pyrrolo[1,2-a][1,4]diazacyclopentadecin-6-yl)carbamate], for which the pEC50 in assay [1] and in assay [2] was more than 8.26 in each case.
For the compound `COc1cnc(O[C@@H]2C[C@H]3C(=O)N[C@]4(C(=O)NS(=O)(=O)C5(C)CC5)C[C@H]4/C=C\CC[C@H](C)C[C@@H](C)[C@H](NC(=O)OC(C)(C)C(F)(F)F)C(=O)N3C2)c2ccc(N(C)C)cc12` [Compound 3137, 1,1,1-trifluoro-2-methylpropan-2-yl((2R,6S,7R,9S,13aS,14aR,16aS,Z)-2-((6-(dimethylamino)-4-methoxyisoquinolin-1-yl)oxy)-7,9-dimethyl-14a-(((1-methylcyclopropyl)sulfonyl)carbamoyl)-5,16-dioxo-1,2,3,5,6,7,8,9,10,11,13a,14,14a,15,16,16a-hexadecahydrocyclopropa[e]pyrrolo[1,2-a][1,4]diazacyclopentadecin-6-yl)carbamate], the pEC50 in assay [1] and in assay [2] was more than 8.26 in each case.
In the case of `COc1cnc(O[C@@H]2C[C@H]3C(=O)N[C@]4(C(=O)NS(=O)(=O)C5(C)CC5)C[C@H]4/C=C\CC[C@@H](C)C[C@@H](C)[C@H](NC(=O)OC(C)(C)C(F)(F)F)C(=O)N3C2)c2ccc(N(C)C)cc12` [Compound 3138, 1,1,1-trifluoro-2-methylpropan-2-yl((2R,6S,7R,9R,13aS,14aR,16aS,Z)-2-((6-(dimethylamino)-4-methoxyisoquinolin-1-yl)oxy)-7,9-dimethyl-14a-(((1-methylcyclopropyl)sulfonyl)carbamoyl)-5,16-dioxo-1,2,3,5,6,7,8,9,10,11,13a,14,14a,15,16,16a-hexadecahydrocyclopropa[e]pyrrolo[1,2-a][1,4]diazacyclopentadecin-6-yl)carbamate], the negative logarithm of the EC50 (pEC50) in assay [1] and in assay [2] was more than 8.26 each time.
As to `CCOc1ccc2c(O[C@@H]3C[C@H]4C(=O)N[C@]5(C(=O)NS(=O)(=O)C6(C)CC6)C[C@H]5/C=C\CC[C@H](C)C[C@@H](C)[C@H](NC(=O)OC(C)(C)C(F)(F)F)C(=O)N4C3)ncc(OC)c2c1` [Compound 3139, 1,1,1-trifluoro-2-methylpropan-2-yl((2R,6S,7R,9S,13aS,14aR,16aS,Z)-2-((6-ethoxy-4-methoxyisoquinolin-1-yl)oxy)-7,9-dimethyl-14a-(((1-methylcyclopropyl)sulfonyl)carbamoyl)-5,16-dioxo-1,2,3,5,6,7,8,9,10,11,13a,14,14a,15,16,16a-hexadecahydrocyclopropa[e]pyrrolo[1,2-a][1,4]diazacyclopentadecin-6-yl)carbamate], the pEC50 in assay [1] and in assay [2] was more than 8.26 in each case.
As to `CCOc1ccc2c(O[C@@H]3C[C@H]4C(=O)N[C@]5(C(=O)NS(=O)(=O)C6(C)CC6)C[C@H]5/C=C\CC[C@@H](C)C[C@@H](C)[C@H](NC(=O)OC(C)(C)C(F)(F)F)C(=O)N4C3)ncc(OC)c2c1` [Compound 3140, 1,1,1-trifluoro-2-methylpropan-2-yl((2R,6S,7R,9R,13aS,14aR,16aS,Z)-2-((6-ethoxy-4-methoxyisoquinolin-1-yl)oxy)-7,9-dimethyl-14a-(((1-methylcyclopropyl)sulfonyl)carbamoyl)-5,16-dioxo-1,2,3,5,6,7,8,9,10,11,13a,14,14a,15,16,16a-hexadecahydrocyclopropa[e]pyrrolo[1,2-a][1,4]diazacyclopentadecin-6-yl)carbamate], the pEC50 in assay [1] and in assay [2] was more than 8.26 each time.
For `COc1cnc(O[C@@H]2C[C@H]3C(=O)N[C@]4(C(=O)NS(=O)(=O)C5(CF)CC5)C[C@H]4/C=C\CC[C@H](C)C[C@@H](C)[C@H](NC(=O)OC(C)(C)C)C(=O)N3C2)c2ccc(N(C)C)cc12` [Compound 3141, tert-butyl ((2R,6S,7R,9S,13aS,14aR,16aS,Z)-2-((6-(dimethylamino)-4-methoxyisoquinolin-1-yl)oxy)-14a-(((1-(fluoromethyl)cyclopropyl)sulfonyl)carbamoyl)-7,9-dimethyl-5,16-dioxo-1,2,3,5,6,7,8,9,10,11,13a,14,14a,15,16,16a-hexadecahydrocyclopropa[e]pyrrolo[1,2-a][1,4]diazacyclopentadecin-6-yl)carbamate], the pEC50 in assay [1] and in assay [2] was more than 8.26 each time.
As to `COc1cnc(O[C@@H]2C[C@H]3C(=O)N[C@]4(C(=O)NS(=O)(=O)C5(CF)CC5)C[C@H]4/C=C\CC[C@@H](C)C[C@@H](C)[C@H](NC(=O)OC(C)(C)C)C(=O)N3C2)c2ccc(N(C)C)cc12` [Compound 3142, tert-butyl ((2R,6S,7R,9R,13aS,14aR,16aS,Z)-2-((6-(dimethylamino)-4-methoxyisoquinolin-1-yl)oxy)-14a-(((1-(fluoromethyl)cyclopropyl)sulfonyl)carbamoyl)-7,9-dimethyl-5,16-dioxo-1,2,3,5,6,7,8,9,10,11,13a,14,14a,15,16,16a-hexadecahydrocyclopropa[e]pyrrolo[1,2-a][1,4]diazacyclopentadecin-6-yl)carbamate], the pEC50 in assay [1] and in assay [2] was more than 8.26 in each case.
With `COc1cnc(O[C@@H]2C[C@H]3C(=O)N[C@]4(C(=O)NS(=O)(=O)C5(CF)CC5)C[C@H]4/C=C\CC[C@H](C)C[C@@H](C)[C@H](NC(=O)OC(C)(C)C(F)(F)F)C(=O)N3C2)c2ccc(N(C)C)cc12` [Compound 3143, 1,1,1-trifluoro-2-methylpropan-2-yl((2R,6S,7R,9S,13aS,14aR,16aS,Z)-2-((6-(dimethylamino)-4-methoxyisoquinolin-1-yl)oxy)-14a-(((1-(fluoromethyl)cyclopropyl)sulfonyl)carbamoyl)-7,9-dimethyl-5,16-dioxo-1,2,3,5,6,7,8,9,10,11,13a,14,14a,15,16,16a-hexadecahydrocyclopropa[e]pyrrolo[1,2-a][1,4]diazacyclopentadecin-6-yl)carbamate], the pEC50 in assay [1] and in assay [2] was more than 8.26 in each case.
